Key:
CDK12 = CDK12 (Homo sapiens, UniProt Q9NYV4); assay: Inhibition of cyclin-dependent kinase 12 (% enzyme activity at 1 uM and IC50); assay type: biochemical; details: for remaining activity at 1 µM: 1 uM compound
MDA-MB-231 cell line = assay: Antiproliferative activity, MDA-MB-231 cell line (GI50); assay type: cell-based; details: Homo sapiens
CCNK = CCNK degradation (DC50, Dmax); assay type: cell-based; details: for Dmax (%): CCNK degradation

Chain of CDK12 (Q9NYV4 whole entry): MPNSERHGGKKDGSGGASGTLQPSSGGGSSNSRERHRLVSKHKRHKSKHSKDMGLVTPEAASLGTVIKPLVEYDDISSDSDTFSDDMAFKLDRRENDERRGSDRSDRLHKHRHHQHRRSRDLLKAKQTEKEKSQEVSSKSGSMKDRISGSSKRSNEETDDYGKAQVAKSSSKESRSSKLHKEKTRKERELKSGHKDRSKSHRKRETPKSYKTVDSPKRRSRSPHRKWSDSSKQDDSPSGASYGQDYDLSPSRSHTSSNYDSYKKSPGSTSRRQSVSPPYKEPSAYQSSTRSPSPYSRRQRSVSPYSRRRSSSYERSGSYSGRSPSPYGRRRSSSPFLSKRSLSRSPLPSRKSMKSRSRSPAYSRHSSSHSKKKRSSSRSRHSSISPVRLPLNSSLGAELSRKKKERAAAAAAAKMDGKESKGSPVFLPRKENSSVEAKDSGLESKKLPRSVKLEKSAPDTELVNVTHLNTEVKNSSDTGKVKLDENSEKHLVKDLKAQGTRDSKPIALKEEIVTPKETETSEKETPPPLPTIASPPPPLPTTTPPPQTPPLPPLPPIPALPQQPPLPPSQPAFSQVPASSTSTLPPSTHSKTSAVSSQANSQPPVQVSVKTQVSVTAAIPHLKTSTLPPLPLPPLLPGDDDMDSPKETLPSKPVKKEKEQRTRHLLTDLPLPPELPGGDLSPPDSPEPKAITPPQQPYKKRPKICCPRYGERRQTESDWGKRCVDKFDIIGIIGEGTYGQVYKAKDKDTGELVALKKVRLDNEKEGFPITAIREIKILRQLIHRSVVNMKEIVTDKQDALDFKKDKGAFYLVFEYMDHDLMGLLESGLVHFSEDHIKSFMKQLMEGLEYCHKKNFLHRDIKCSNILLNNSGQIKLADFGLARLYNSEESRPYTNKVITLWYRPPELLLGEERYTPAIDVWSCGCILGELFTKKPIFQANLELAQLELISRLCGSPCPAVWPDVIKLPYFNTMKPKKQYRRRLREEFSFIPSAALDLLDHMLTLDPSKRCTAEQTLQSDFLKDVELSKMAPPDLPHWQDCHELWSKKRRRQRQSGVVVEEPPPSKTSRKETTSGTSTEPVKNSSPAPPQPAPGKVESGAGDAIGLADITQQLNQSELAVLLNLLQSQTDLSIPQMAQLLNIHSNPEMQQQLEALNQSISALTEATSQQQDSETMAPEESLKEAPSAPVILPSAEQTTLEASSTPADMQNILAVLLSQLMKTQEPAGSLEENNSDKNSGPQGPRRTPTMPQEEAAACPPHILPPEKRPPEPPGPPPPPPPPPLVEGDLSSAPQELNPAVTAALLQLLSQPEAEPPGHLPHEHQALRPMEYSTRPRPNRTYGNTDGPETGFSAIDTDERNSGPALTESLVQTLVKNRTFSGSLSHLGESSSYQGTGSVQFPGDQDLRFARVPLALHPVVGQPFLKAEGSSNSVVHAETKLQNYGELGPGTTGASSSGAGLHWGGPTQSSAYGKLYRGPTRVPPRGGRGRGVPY
Chain of CDK12 (O75909 whole entry partner): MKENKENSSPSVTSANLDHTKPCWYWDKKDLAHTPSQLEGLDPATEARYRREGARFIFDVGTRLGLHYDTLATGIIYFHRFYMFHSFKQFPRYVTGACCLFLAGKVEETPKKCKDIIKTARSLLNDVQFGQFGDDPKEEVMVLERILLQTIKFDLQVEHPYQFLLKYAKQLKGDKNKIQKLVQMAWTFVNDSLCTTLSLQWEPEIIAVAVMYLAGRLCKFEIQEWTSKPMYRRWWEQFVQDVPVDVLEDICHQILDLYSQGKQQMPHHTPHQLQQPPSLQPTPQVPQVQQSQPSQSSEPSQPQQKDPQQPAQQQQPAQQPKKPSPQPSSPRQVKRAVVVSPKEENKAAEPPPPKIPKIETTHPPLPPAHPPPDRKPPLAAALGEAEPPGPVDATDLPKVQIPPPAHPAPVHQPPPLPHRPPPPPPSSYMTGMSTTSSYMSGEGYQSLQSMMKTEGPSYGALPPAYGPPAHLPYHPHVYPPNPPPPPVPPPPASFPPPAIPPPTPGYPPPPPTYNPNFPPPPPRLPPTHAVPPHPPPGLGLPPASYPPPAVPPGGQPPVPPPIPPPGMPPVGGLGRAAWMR

| Structure (SMILES) | IC50 (CDK12) [nM] | GI50 (MDA-MB-231 cell line) [nM] | DC50 (CCNK) [nM] | Dmax (%) (CCNK) | remaining activity at 1 µM (CDK12) [%] |
| --- | --- | --- | --- | --- | --- |
| Fc1ccc2[nH]c(CNc3cc(N4CCOCC4)nn4c(-c5cnn(C(F)F)c5)cnc34)nc2c1F [Cmpd 55, N-((4,5-difluoro-1H-benzo[d]imidazol-2-yl)methyl)-3-(1-(difluoromethyl)-1H-pyrazol-4-yl)-6-morpholinoimidazo[1,2-b]pyridazin-8-amine] | 283 | 472 | 70 | 80 |  |
| CN1CCC(Nc2cc(NCc3nc4cccc(Cl)c4[nH]3)c3ncc(-c4ccsc4)n3n2)CC1 [Cmpd 71, N8-((7-chloro-1H-benzo[d]imidazol-2-yl)methyl)-N6-(1-methylpiperidin-4-yl)-3-(thiophen-3-yl) imidazo[1,2-b]pyridazine-6,8-diamine] | 130 | 71 | 160 | 100 |  |
| CN1CCN(c2cc(NCc3nc4c(F)c(F)ccc4[nH]3)c3ncc(-c4cnn(C5CC5)c4)n3n2)CC1 [Cmpd 38, 3-(1-cyclopropyl-1H-pyrazol-4-yl)-N-((4,5-difluoro-1H-benzo[d]imidazol-2-yl)methyl)-6-(4-methylpiperazin-1-yl) imidazo[1,2-b]pyridazin-8-amine] |  | 5430 | 1600 | 65 | 53 |
| Cc1cc(-c2cnc3c(NCc4nc5cccc(Cl)c5[nH]4)cc(N4CCN(C)CC4)nn23)cs1 [Cmpd 84, N-((7-chloro-1H-benzo[d]imidazol-2-yl)methyl)-6-(4-methylpipcrazin-1-yl)-3-(5-methylthiophen-3-yl) imidazo[1,2-b]pyridazin-8-amine] |  | 2210 | 1500 | 80 | 61 |
| Cc1cc(-c2cnc3c(NCc4nc5cc(Cl)c(Cl)cc5[nH]4)cc(N4CCOCC4)nn23)cs1 [Cmpd 88, N-((5,6-dichloro-1H-benzo[d]imidazol-2-yl)methyl)-3-(5-methylthiophen-3-yl)-6-morpholinoimidazo[1,2-b]pyridazin-8-amine] |  | 460 | 1800 | 100 | 82 |
| Fc1cccc2[nH]c(CNc3cc(N4CCOCC4)nn4c(-c5cnn(C(F)F)c5)cnc34)nc12 [Cmpd 52, 3-(1-(difluoromethyl)-1H-pyrazol-4-yl)-N-((4-fluoro-1H-benzo[d]imidazol-2-yl)methyl)-6-morpholinoimidazo[1,2-b]pyridazin-8-amine] | 359 | 390 | 30 | 80 | 23 |
| Cc1noc(C)c1-c1cnc2c(NCc3nc4cc(Cl)c(Cl)cc4[nH]3)cc(N3CCN(C)CC3)nn12 [Cmpd 99, N-((5,6-dichloro-1H-benzo[d]imidazol-2-yl)methyl)-3-(3,5-dimethylisoxazol-4-yl)-6-(4-methylpiperazin-1-yl) imidazo[1,2-b]pyridazin-8-amine] | 1250 | 689 | 10000 |  | 59 |
| CN1CCN(c2cc(NCc3nc4cc(Cl)c(Cl)cc4[nH]3)c3ncc(-c4csc(C#N)c4)n3n2)CC1 [Cmpd 79, 4-(8-(((5,6-dichloro-1H-benzo[d]imidazol-2-yl)methyl)amino)-6-(4-methylpiperazin-1-yl)imidazo[1,2-b]pyridazin-3-yl)thiophene-2-carbonitrile] | 5000 | 1470 | 1700 | 75 | 80 |
| CN1CCN(c2cc(NCc3nc4c(F)cccc4[nH]3)c3ncc(-c4cnn(C5CC5)c4)n3n2)CC1 [Cmpd 35, 3-(1-cyclopropyl-1H-pyrazol-4-yl)-N-((4-fluoro-1H-benzo[d]imidazol-2-yl)methyl)-6-(4-methylpiperazin-1-yl) imidazo[1,2-b]pyridazin-8-amine] |  | 5170 | 1300 | 80 | 49 |
| CN1CCN(c2cc(NCc3nc4c(F)c(F)ccc4[nH]3)c3ncc(-c4cnn(C(F)F)c4)n3n2)CC1 [Cmpd 54, N-((4,5-difluoro-1H-benzo[d]imidazol-2-yl)methyl)-3-(1-(difluoromethyl)-1H-pyrazol-4-yl)-6-(4-methylpiperazin-1-yl) imidazo[1,2-b]pyridazin-8-amine] | 175 | 440 | 110 | 85 |  |
| CC(C)n1cc(-c2cnc3c(NCc4nc5cccc(Cl)c5[nH]4)cc(N4CCOCC4)nn23)cn1 [Cmpd 18, N-((7-chloro-1H-benzo[d]imidazol-2-yl)methyl)-3-(1-isopropyl-1H-pyrazol-4-yl)-6-morpholinoimidazo[1,2-b]pyridazin-8-amine] | 997 | 9920 | 1800 | 70 | 48 |
| Cc1cc(-c2cnc3c(NCc4nc5c(C)ccnc5[nH]4)cc(N4CCN(C)CC4)nn23)cs1 [Cmpd 90, N-((7-methyl-3H-imidazo[4,5-b]pyridin-2-yl)methyl)-6-(4-methylpiperazin-1-yl)-3-(5-methylthiophen-3-yl) imidazo[1,2-b]pyridazin-8-amine] | 1410 | 4160 | 10000 |  | 36 |
| CN1CCN(c2cc(NCc3nc4cc(Cl)c(Cl)cc4[nH]3)c3ncc(-c4cnn(C5CC5)c4)n3n2)CC1 [Cmpd 29, 3-(1-cyclopropyl-1H-pyrazol-4-yl)-N-((5,6-dichloro-1H-benzo[d]imidazol-2-yl)methyl)-6-(4-methylpiperazin-1-yl) imidazo[1,2-b]pyridazin-8-amine] |  | 1120 | 10000 |  | 81 |
| Clc1cccc2nc(CNc3cc(NC4CCNCC4)nn4c(-c5ccsc5)cnc34)[nH]c12 [Cmpd 72, N8-((7-chloro-1H-benzo[d]imidazol-2-yl)methyl)-N6-(piperidin-4-yl)-3-(thiophen-3-yl) imidazo[1,2-b]pyridazine-6,8-diamine] | 56 | 49 | 50 | 100 |  |
| Cc1cc(-c2cnc3c(NCc4nc5cccc(Cl)c5[nH]4)cc(N4CCOCC4)nn23)cs1 [Cmpd 85, N-((7-chloro-1H-benzo[d]imidazol-2-yl)methyl)-3-(5-methylthiophen-3-yl)-6-morpholinoimidazo[1,2-b]pyridazin-8-amine] |  | 3910 | 1200 | 85 | 73 |
| CN1CCN(c2cc(NCc3nc4c(F)c(F)ccc4[nH]3)c3ncc(-c4ccsc4)n3n2)CC1 [Cmpd 78, N-((4,5-difluoro-1H-benzo[d]imidazol-2-yl)methyl)-6-(4-methylpiperazin-1-yl)-3-(thiophen-3-yl) imidazo[1,2-b]pyridazin-8-amine] | 473 | 425 | 260 | 80 | 24 |
| NC1CCN(c2cc(NCc3nc4cc(Cl)c(Cl)cc4[nH]3)c3ncc(-c4cnn(C(F)F)c4)n3n2)CC1 [Cmpd 45, 6-(4-aminopiperidin-1-yl)-N-((5,6-dichloro-1H-benzo[d]imidazol-2-yl)methyl)-3-(1-(difluoromethyl)-1H-pyrazol-4-yl) imidazo[1,2-b]pyridazin-8-amine] | 567 | 365 | 1200 | 100 |  |
